Results on 13 substances are retold here after patent US8283439B2, “Recombinant fragments and synthetic peptides of 17-kDa polypeptide useful in detecting Bartonella henselae” (Medical Diagnostic Laboratories L.L.C., priority 2008, dated 2012).

The assay deals with antibodies present in IFA sero-positive sera from patients infected with Bartonella henselae (IgG). The assay can be described thus: IgG ELISA with synthetic polypeptides of 17-kDa protein as coating antigen. It counts as binding, human. The settings on record: for antibody binding activity in ELISA: IFA sero-positive sera, mostly relative to peptide 3C. The text has this:
A panel of 47 human sera, including 27 IFA positive and 20 WA negative sera, was used. ROC analysis was used to analysis the binding activity via OD450nm (FIGS. 19 and 21). AUCs for peptide 3C, 3B, 3D, and 3E were 0.9, 0.5, 0.5, and 0.8 respectively (FIGS. 19 and 21). […] Thus, the antibody recognition site seems to be present on peptide 3C (but not peptides 3B and 3D).
We adopted an IgG ELISA assay and evaluated the binding activity of the modified peptides towards IgG. The ELISA procedure involves: (i) coating 96-well micro-titer plates with modified peptides at varying concentrations (e.g., 0.2-5 μg/ml) at 4° C. overnight; (ii) adding 5% skim milk to block non-specific binding; (iii) adding patients' sera to allow formation of antibody-antigen complex; (iv) detecting the antibody-antigen complex. IFA sero-positive sera served as positive controls and IFA sero-negative sera served as negative controls. Detection of antibody-antigen complex was performed with the use of horseradish peroxidase.
A panel of 47 human sera was used in an ELISA assay to evaluate the sensitivity and specificity for synthetic polypeptides of 17-kDa protein. This panel contains 27 IFA positive sera and 20 IFA negative sera. Synthetic polypeptides used include amino acid substitution (Peptide 3C-CS3), addition (Peptide 3C-Ext2), and deletion (Peptide 3C-Del). Antibody binding was reflected by OD450nm, which was analyzed by Interactive dot diagram in statistic software MedCalc.
Background: In an ELISA, binding on a coated surface is turned into a signal by an enzyme label.

Setting [1] is: panel study, 47 human sera (27 IFA positive, 20 IFA negative), interactive dot diagram.
[2] abbreviates: ELISA, panel of 47 human sera (27 IFA positive, 20 IFA negative), ROC analysis of OD450nm.

“Also recorded” adds a separate entry of the source.

“ED_QKQLKEKLEKSDVRL (EDQKQLKEKLEKSDVRL; listed as Bartonella henselae) [Peptide 3C-Del, peptide 3C with leucine at third position from N-terminus deleted]”: the “antibody binding activity in ELISA” value is given as “did not alter the binding activity; also recorded: identical binding activity as compared to that of peptide 3C”. Under setting [1], this substance gave a sensitivity of roughly 80% and a specificity of roughly 90%.

Under setting [2], “QAKDTKTKEELREEQTQK (listed as Bartonella henselae) [Peptide 3B, synthetic polypeptide, aa 111-128 of 17-kDa protein]” gave an AUC of 0.5, a sensitivity of 33.3% and a specificity of 90.0%.

For “EDLQKQLKEKLEKSDVRL (listed as Bartonella henselae) [Peptide 3C, synthetic polypeptide, aa 131-148 of 17-kDa protein]”, the “antibody binding activity in ELISA” value is “possesses the antibody binding activity; also recorded: dose-dependent increase in binding towards sero-positive serum”. Under setting [2], this substance displayed an AUC of 0.9, a sensitivity of 77.8% and a specificity of 88.2%. Besides, where the note is “listed as SEQ ID NO: 22”, the “antibody binding activity in ELISA” value was “possesses the ability to bind to antibodies present in IFA positive sera”.

As to “EDLQKQVKEKLEKSDVRL (listed as Bartonella henselae) [Peptide 3C-CS3, peptide 3C with conservative substitution L to V]”, the “antibody binding activity in ELISA” value is given as “same binding activity; also recorded: identical binding activity as compared to that of peptide 3C”. Under setting [1], this substance returned a sensitivity of roughly 80% and a specificity of roughly 90%.

For “EEQTQKKHEDLQKQLK (listed as Bartonella henselae) [Peptide 3D, synthetic polypeptide, aa 123-138 of 17-kDa protein]”, under setting [2], the AUC came to 0.5, the sensitivity is recorded as 85.2% and the specificity was 25.0%.

Consider “DDLQKQLKEKLEKSDVRL (listed as Bartonella henselae) [Peptide 3C-CS1, peptide 3C with conservative substitution E to D]”, for which the “antibody binding activity in ELISA” value was “identical binding activity as compared to that of peptide 3C”.

Take “QKKHEDLQKQLKEKLEKSDVRL (listed as Bartonella henselae) [Peptide 3C-Ext1, peptide 3C with addition of 4 AA at N-terminus]”: the “antibody binding activity in ELISA” value is given as “same binding activity as compared to that of peptide 3C”.

For the substance “EQTQKKHEDLQKQLKEKLEKSDVRL (listed as Bartonella henselae) [Peptide 3C-Ext2, peptide 3C with addition of 7 AA at N-terminus]”, the “antibody binding activity in ELISA” value is reported as “same binding activity as compared to that of peptide 3C; also recorded: identical binding activity as compared to that of peptide 3C”. Under setting [1], this substance showed a sensitivity of roughly 80% and a specificity of roughly 90%.

Turning to “LKQDEQKLEKLEKSDVRL (listed as Bartonella henselae) [Peptide 3C-RD1, peptide 3C with substitution of the first 8 AA at N-terminus]”, the “antibody binding activity in ELISA” value is reported as “same binding activity as compared to that of peptide 3C”.

On to “EDLQKQLKSDKEVKLRLE (listed as Bartonella henselae) [Peptide 3C-RD2, peptide 3C with substitution of the last 10 AA at C-terminus]”, for which the “antibody binding activity in ELISA” value is “completed abrogated the binding activity; also recorded: fail to bind antibody”. Besides, under setting [1], the sensitivity is listed as roughly 11% and the specificity is 0%.

As for “LKLELELVQDSDKQEKRK (listed as Bartonella henselae) [Peptide 3C-RD, peptide 3C with substitution of the entire 18 AA]”, the “antibody binding activity in ELISA” value is on record as “no binding activity; also recorded: fail to bind antibody”. Under setting [1], this substance displayed a sensitivity of roughly 11% and a specificity of 0%.

Consider “EDIQKQLKEKLEKSDVRL (listed as Bartonella henselae) [Peptide 3C-CS2, peptide 3C with conservative substitution L to I]”, for which the “antibody binding activity in ELISA” value was “same binding activity”.

Turning to “EKLEKSDVRL (listed as Bartonella henselae) [Peptide 3E, synthetic polypeptide, aa 139-148 of 17-kDa protein]”, the “antibody binding activity in ELISA” value is on record as “not sufficient to complete antibody binding”. Under setting [2], the AUC is reported as 0.8, the sensitivity amounted to 40.7% and the specificity amounted to 88.2%. Also, the “antibody binding activity in ELISA” value (listed as SEQ ID NO: 33) is on record as “by itself insufficient to render the ability to bind antibodies present in IFA positive sera”.
